From publication PMC12647017, “Discovery and optimization of a synthetic small protein domain targeting antibodies” (Frontiers in Bioengineering and Biotechnology, 2025) come the findings set out here.

Series [1] can be described thus: Solubility / precipitation observed during production, dialysis and purification. It counts as physicochemical. The procedure:
Therefore, after expression the soluble fractions were further centrifuged at 42,000 g for 20 min at 4 °C. As the samples were diluted (∼5 mg/mL in 25 mL lysis buffer), the soluble fractions were lyophilized and resuspended in 4 mL of water. The samples were dialyzed (Membranes Spectra Pre-Treated 1 kDa, Carl Roth) to Binding buffer without imidazole (20 mM Sodium Phosphate, 500 mM Sodium Chloride pH 7.4) for 24 h at 16 °C. The samples were quantified by […] (typically ∼6 mg/mL), this solution was diluted 1:2 in Binding buffer (20 mM Sodium Phosphate, 500 mM Sodium Chloride, 20 mM imidazole pH 7.4) and purified in a gravitational flow with 6 mL of resin (IMAC Sepharose 6 Fast Flow (Ni^2+), Cytiva) packed in a PD-10 column. The column was prepared using the indications of the manufacturer. The binding of the protein to the column was maximized by an incubation for 1 h at room temperature in agitation at 40rpm. The resin was washed 4 x column volumes (CV) with binding buffer. The elution as achieved by incubation for 15min with elution buffers. We used a gradient with 3 x CV elution buffer 1 (binding buffer with 100 mM imidazole) and 3 x CV elution buffer 2 (binding buffer with 200 mM imidazole).
The most enriched elutions in WW domains (60%–70% purity) were combined and dialysed against PBS1x (10 mM Na2HPO4, 1.8 mM KH2PO4, 2.7 mM KCl, 137 mM NaCl pH 7.4) with routine changes of buffer up to 48 h at 16 °C. Following the samples were concentrated with a Amicon-Ultra15 3 kDa MWCO (Millipore) with centrifugation conditions 4,900 g, 30 min, 4 °C. The final samples were quantified by BCA assay.
Size Exclusion Chromatography (SEC). The samples were further purified by SEC to achieve 90% purity in a AKTA system (Cytiva). The column Superdex 75 Increase 10/300 GL (29148721, Cytiva) was washed with water and equilibrated 2CV in PBS1x, as described by the manufacturer. As calibrants we prepare a mixture: 2 mg/mL of Bovine Serum Albumin (66 kDa, BP9702-100, FisherScientific), Ovalbumin (42 kDa, A5503-1G, Sigma), Chicken Lysozyme ([…], 62,971–10G-F, Fluka) and hPin1_WW chemically synthesized (5 kDa, produced in ([Dias et al., 2015])) in PBS 1x, this sample was filtered with 0.2 µm PES (514–0073, VWR) and analysed. The operation conditions: flow 0.5 mL/min, 0.05 CV in PBS1x and injection of 250 µL and run for 2 CV with PBS 1x at 16 °C. The same method was used for the WW domain samples. After purifications samples were quantified for total protein by BCA assay, as described previously and used for characterization.

Series [2] has as its system human IgG. The series is described as follows: Microscale Thermophoresis (MST) with IgG-FITC. It counts as binding. On the procedure:
For MST assays of E6, IgG was conjugated with fluoresceine isothiocyanate (FITC) using standard protocols. The conjugated IgG-FITC was used at a fixed concentration of 50nM and 16 serial dilutions of E6 protein (from 23.5 µM to 0.7 nM) were made in 50 mM MOPS 0.05% (v/v) Tween-20 pH 7.
For MST assays of E6_M2_T2, the target was hIgG-FITC (F9636, Sigma) at a constant concentration of 25 nM. For the E6_M2_T2 ligand, 16 samples were prepared in variable concentrations starting from 695 nM and using a serial dilution of 1:2 up to a minimum concentration of […] using PBS1x-0.05% (v/v) Tween-20 pH7.4.
Samples were transferred to a standard capillary (Monolith NT.115 Capillary, Nanotemper) with the following settings: medium MST-power, excitation power at 20%, with excitation in Nano-Blue, with thermostat at 25 °C. The signal of the samples was read in triplicates using a Monolith NT.115 (Nanotemper) and the signal was processed in the manufacturer software with FitModel: Kd and Hill. The binding parameters (KD and EC50) and were estimated automatically in the MST software.

The subject of series [3] is human polyclonal IgG. The series can be described thus: Screening ELISA of phage display clones (crude extracts) against human polyclonal IgG. It counts as binding. The arrangement: key: High: high binders (Abs>0.4); Moderate: moderate signal. Conditions: crude extract of clones from 6th panning round, 1 µg/well human polyclonal IgG, blocked 3% (w/v) BSA in TBS, 50 µL extract 1 h at 37 °C, Anti-HA tag-HRP, ABTS, Abs405nm. On the procedure:
The biopanning of the previously developed WWp5_4 library ([Dias et al., 2025]) (Figures 1A,B) against human polyclonal IgG was performed for six rounds, after which an enrichment of ligands was observed (Supplementary Table S3). To assess the binding of each clone to the target, 192 clones were selected and expressed at small scale in 96-deep well blocks, following conditions previously optimised. After cell lysis, the supernatant containing the soluble fraction was used for ELISA assays. The results in Figure 1C illustrate the difference in the absorbance profile of the screened ligands. […] From these 26, only 21 presented high quality for reliable sequencing results. The sequence alignment and diversity of the different binders is represented in Table 1 and Figure 2A.
Small Scale Protein Expression and screening ELISA: From the output of the 6th round of panning, 94 isolated colonies were peaked into two sterile 96-well deep well 2mL round-bottom plates and grown with 200 µL of LB with ampicillin, 125 rpm, 37 °C, overnight (master plates). The following day, to one of the master plates was added glycerol to achieve a final concentration of 15% and was stored at -80 °C. Regarding the other master plate, 12 µL of this culture was added to another sterile 96-well deep well 2 mL round-bottom plate with 1.2 mL of LB with ampicillin and was grown at 37 °C, 125 rpm until OD600nm achieved 0.5-0.6. After this, protein expression was induced with 1 mM IPTG and continued incubation with the previous conditions. The following day, the cultures were sonicated for 30 minutes in ice-water bath and centrifuged for 10 minutes at 2500 x g. The supernatant was collected and transferred to a new microplate to be used in the screening for the ELISA (crude extract). For the ELISA, three microplates were tested: A) Sample binding plate; B) Negative control plate; C) Expression plate. On the sample binding plate, 1 µg/well of human polyclonal IgG was immobilized on the plate at 4 °C, overnight. On the following day, the target was removed, and the wells were washed once with TBS, then the plate was blocked with 300 µL 3% (w/v) BSA in TBS for 1 hour at 37 °C. After this, the wells were washed once with TBS, and were then incubated with 50 µL of crude extract (containing WW domain) for 1 hour at 37 °C. The plate was then washed 5 times with TBS-T, and then incubated with 100 µL of the Anti-HA tag-HRP conjugated antibody (diluted 1:1000) for 1 hour at 37 °C. The plate was then washed once with TBS-T and 4 times with TBS, and then incubated with the substrate ABTS for 1 hour at the dark at 37 °C. The results were then analysed in a microplate reader (TECAN) and the Abs405nm was then measured.
For the Negative control plate the protocol was the same as for the Binding microplate, except for the target immobilization. Instead of having IgG, only coating buffer was added. This plate allows to detect clones that unspecific bind to BSA present in the Blocking Buffer. For the Expression plate the protocol started at the step of incubation with the crude extract, and from there the steps were the same as the Binding microplate. This plate allows to detect clone’s basal expression level.

Series [4] deals with human polyclonal IgG (human). The series is described as follows: ELISA; hIgG immobilised (1 ug/well) in 0.1 M sodium bicarbonate pH 8.6 on Maxisorp plates; blocked with 5% soya milk in PBS; 100 uL soluble fraction (~0.065 mg/mL total protein), 2 h at room temperature; detection with anti-His-HRP and ABTS, Abs 405 nm.

By EC50 is commonly meant the concentration at which the effect is half-maximal. Usually Kd stands for the equilibrium constant for the complex coming apart. As to “C S GK LPPGW E E R KTRRFKLG R TYYYNHHILSKTS Q W EH PR G SSS GK LPPGW E E R KTRRFKLG R TYYYNHHILSKTS Q W EH PR G SS [Clone E6_M2_T2]”, in series [1], the “aggregation compared with the monomeric version” value was “aggregates less than the monomeric version”. Further, the “solubility compared with native counterpart E6” value in series [1] (IMAC purification without chaotropic agents) is “higher solubility than the native counterpart”. Besides, the “precipitation during size exclusion chromatography” value in series [1] (Superdex 75 Increase 10/300 GL, PBS1x, 16 °C) was “did not observe any precipitation”. Moreover, the “stability compared with E6_M2” value in series [1] (after dialysis and during size exclusion chromatography) was “more stable”. The “precipitation / solubility after dialysis” value in series [1] (dialysis against PBS1x pH 7.4, up to 48 h at 16 °C) was “always soluble”. In series [2] (E6_M2_T2, hIgG-FITC 25 nM, ligand from 695 nM 1:2 dilutions, PBS1x-0.05% (v/v) Tween-20 pH 7.4, 25 °C, n = 3), the EC50 was 157 nM. Also, the Kd in series [2] (E6_M2_T2, hIgG-FITC 25 nM, ligand from 695 nM 1:2 dilutions, PBS1x-0.05% (v/v) Tween-20 pH 7.4, 25 °C, n = 3, read-out: dissociation constant, KD) was 62 ± 14 nM. The “KD relative to KD of E6 native sequence” value in series [2] (human IgG) is recorded as “half of the dissociation constant estimated for the E6 native sequence”.
In the case of “SMGLLPGWDEYKT WVVDV GKTYYYNH FKVS KTSTWTDPRMSS [Clone H8, WW domain clone against human IgG, loops WVVDV / FKVS]”, the ELISA signal result in series [3] is “Moderate”.
Same read-out and setting: to “SMGLPPGWDEYKT AFSRA GKTYYYNH YLEE KTSTWTDPRMSS [Clone G5, WW domain clone against human IgG, loops AFSRA / YLEE]” belongs “High (high binders (Abs>0.4))”; to “SMGLPPGWDEYKT ALSRW GKTYYYNH DWNP KTSTWTDPRMSS [Clone H7, WW domain clone against human IgG, loops ALSRW / DWNP]”, “Moderate”.
For “SMGLPPGWDEYKT FEIVM GKTYYYNH MHTD KTSTWTDPRMSS [Clone D10, WW domain clone against human IgG, loops FEIVM / MHTD]”, the ELISA signal entry in series [3] is recorded as “Moderate”.
The same measure, in the same setting: under “SMGLPPGWDEYKT SLSRP GKTYYYNH EEPS KTSTWTDPRMSS [Clone G3, WW domain clone against human IgG, loops SLSRP / EEPS]” stands “High (high binders (Abs>0.4))”; under “SMGLPPGWDEYKT SMALL GKTYYYNH YTPG KTSTWTDPRMSS [Clone C8, WW domain clone against human IgG, loops SMALL / YTPG]”, “Moderate”; under “SMGLPPGWDEYKT TLAGL GKTYYYNH YTPG KTSTWTDPRMSS [Clone G9, WW domain clone against human IgG, loops TLAGL / YTPG]”, “Moderate”.
For the molecule “SMGLPPGWDEYKT TMAWL GKTYYYNH YTPG KTSTWTDPRMSS [Clone A5, WW domain clone against human IgG, loops TMAWL / YTPG]”, the ELISA signal result in series [3] is reported as “High (high binders (Abs>0.4))”.
As to “SMGLPPGWDEYKT VLYSG GKTYYYNH IMSL KTSTWTDPRMSS [Clone H6, WW domain clone against human IgG, loops VLYSG / IMSL]”, the ELISA signal result in series [3] is recorded as “High (high binders (Abs>0.4))”.
On the same count and under the same terms, to “SMGLPPGWDEYKT YRVMV GKTYYYNH LYRL KTSTWTDPRMSS [Clone H3, WW domain clone against human IgG, loops YRVMV / LYRL]” belongs “High (high binders (Abs>0.4))”.
In turn, SMGLPPGWDEYKTRRFKLGKTYYYNHHILSKTSTWTDPRMSS (designed binder) [E6 in pET21a with C-terminal histidine tag] displayed an ELISA binding signal relative to the negative control (E. coli Rosetta extract) in series [4] of 1.5 fold.
For the molecule CSGKLPPGWEERKTRRFKLGRTYYYNHHILSKTSQWEHPRGSS (designed binder) [E6_M2], in series [4], the ELISA binding signal relative to the negative control (E. coli Rosetta extract) stood at 2 fold and the ELISA binding signal relative to the scaffold framework WWp5 4 stood at 2 fold.
